The values that follow come from publication PMC9360078, “Pre-clinical 2D and 3D toxicity response to a panel of nanomaterials; comparative assessment of NBM-induced liver toxicity” (Drug Delivery and Translational Research, 2022).

Assay [1] relates to HepG2 2D monolayer. Briefly: Sensitivity to hepatotoxins, CellTiter-Glo ATP viability, 2D monolayer. Type of assay: cell-based. The conditions noted are these: Homo sapiens, 24-h acute dosing, estimated from graphs. The protocol: (§1) For 2D monolayers, 10,000 HepG2 cells were seeded on 96-well plates (Thermo Fisher, Ireland). Cells were left to adhere for 24 h before being treated with chosen NBMs for desired timepoints. For HepG2 spheroid formation, cells were seeded in CellStar® 96 well ultra-low attachment (ULA) cell-repellent plates (Grenier, BioOne, UK) at a density of 1000 cells per well in 100 µl medium (Fig. 1). After 3 days of incubation at 37 °C with 5% CO2, medium was changed with care taken not to disturb the spheroids.
(§2) Sensitivity of spheroid cultures to a panel of common hepatotoxins was tested using a protocol detailed previously in works from Gaskell et al. and Bell et al. and using information listed in the MIP-DILI training set. The hepatotoxins included acetaminophen, diclofenac, trovafloxacin and fialuridine. HepG2 spheroids grown for 3 days and 10 days were exposed to the hepatotoxins, diluted in cell culture medium, for 4 days, with an addition dose administered 2 days after the first exposure. Concentrations tested for each compound were the following: • Acetaminophen: 10000, 5000, 1250, 625, 300, 150, 75 µg/ml • Diclofenac: 400, 200, 100, 50, 25, 12.5, 6.25 µg/ml • Trovafloxacin: 500, 200, 100, 50, 25, 12.5, 6.25 µg/ml • Fialuridine: 200, 100, 50, 25, 12.5, 6.25, 3.15 µg/ml
(§3) Viability of the treated cultures was determined using the CellTiter-Glo® assay (Thermo Fisher, Ireland) as per the manufacturer’s protocol. Culture medium alone with CellTiter-Glo® reagent was used as a blank control and subtracted from all sample values. Cell viability was calculated as a percentage of untreated vehicle control samples. A dose-dependent response curve was plotted, and estimations were made about what concentration of drug would cause a 50% reduction in cell viability (IC50 value). Experiments were run in triplicate (n = 3).
(§4) Spheroids and HepG2 monolayers were treated with varying concentrations of four common hepatotoxic compounds, namely acetaminophen, diclofenac, fialuridine and trovafloxacin. Following a protocol detailed in Gaskell et al., a 4-day repeat-dosing regimen was used to expose 3D spheroids, i.e. spheroids were cultured for 3 days before being treated with hepatotoxic compounds for 2 days, before doing is repeated again on day 5. Spheroids then remained in culture untouched until ATP quantification assay was undertaken on day 7. […] Each of the four chosen compounds was more toxic in 3D spheroids than in 2D monocultures, although differences were not statistically significant. The concentration causing a 50% reduction in cell viability (IC50) was estimated for each drug tested from the graphs, and is reported in Table 7. A comparison to data extracted from the scientific literature is also reported.

In assay [2] the test system is HepG2 spheroids. Briefly: Sensitivity to hepatotoxins, CellTiter-Glo ATP viability, 3D spheroids. The class given is cell-based. To be noted: Homo sapiens, 4-day repeat dosing (day 3 and day 5), readout day 7, estimated from graphs. As to the method: as §1, §2, §3, §4
Assay [3] concerns HepG2 cells (2D monocultures). In words: NBM exposure, LDH cytotoxicity assay, 2D monocultures. The conditions noted are these: 125 µM, 24 h. Type of assay: cell-based, Human.
Protocol: Stock NBM suspensions were vortexed and appropriate dilutions made in cell culture medium. For NBM exposures, briefly, cell culture medium was removed from the wells of culture plates and wells washed with pre-warmed PBS. For adenosine 5′-triphosphate (ATP) quantification and lactate dehydrogenase (LDH) assay, 100 µl of each NBM concentration diluted in culture medium was added to each well for three incubation/exposure timepoints, 24, 48 and 72 h.
The LDH assay is a cytotoxicity assay which is used to assess the level of plasma membrane damage in a cell population. […] LDH release in the supernatants (an indirect measure of cytotoxicity responses) was assessed using the Thermo Scientific Pierce LDH Cytotoxicity Assay Kit (Fisher Scientific, Ireland), following the manufacturers’ protocols. […] Absorbance values at wavelengths (λ) equal to 490 and 680 nm were read using an Epoch microplate reader (Biotek, Mason Technologies, Ireland). The LDH activity was calculated using Eq. (1), whereas the percentage (%) cytotoxicity was extrapolated from Eq. (2).1 LDHactivity=Absorbanceλ=490nm-Absorbanceλ=680nm 2 Cytotoxicity%=LDHactivityTreatedculture-LDHactivityNT/LDHactivityPT-LDHactivityNT […]

Take `CC(=O)Nc1ccc(O)cc1` [Acetaminophen, acetaminophen]: the IC50 in assay [1] was greater than 10000 µM; in assay [2] it was greater than 8000 µM.

For `O=C(O)Cc1ccccc1Nc1c(Cl)cccc1Cl` [Diclofenac, diclofenac], the 50% inhibitory concentration (IC50) in assay [1] was greater than 400 µM; in assay [2], greater than 250 µM. For `O=c1[nH]c(=O)n([C@@H]2O[C@H](CO)[C@@H](O)[C@@H]2F)cc1I` [Fialuridine, fialuridine], in that order: greater than 200 µM and greater than 200 µM. For `N[C@@H]1[C@H]2CN(c3nc4c(cc3F)c(=O)c(C(=O)O)cn4-c3ccc(F)cc3F)C[C@@H]12` [Trovafloxacin, trovafloxacin], in that order: greater than 400 µM and greater than 100 µM. `CC(C)[C@@H]1NC(=O)[C@H](C)OC(=O)[C@@H](C(C)C)NC(=O)[C@@H](C(C)C)OC(=O)[C@H](C(C)C)NC(=O)[C@H](C)OC(=O)[C@@H](C(C)C)NC(=O)[C@@H](C(C)C)OC(=O)[C@H](C(C)C)NC(=O)[C@H](C)OC(=O)[C@@H](C(C)C)NC(=O)[C@@H](C(C)C)OC1=O` [valinomycin] returned a Maximal cell death in assay [3] of less than 50%.
